Measured values: patent US20110311445A1, “DIAGNOSIS AND TREATMENT OF MYELOID AND LYMPHOID CELL CANCERS” (MORPHOTEK, INC., priority 2003, published 2011)

Tests used:
[1] = system: myeloid and lymphoid cancer cells; assay: Binding of chlorotoxin and binding-domain peptides to lymphoid cancer cells (FACS, streptavidin-fluorescein); conditions: general statement; FACS on Raji, Daudi, Molt-4 cells (FIG. 1, 2)
Method: Raji (Epstein et al. (1966) J. Natl. Cancer Inst. 37, 547-559) and Daudi (Klein et al. (1968) Cancer Res. 28 1300-1310) cells were used either unfixed or fixed with one percent glutaraldehyde. The Raji cell line (ATCC CCL-86) is a B lymphocyte cell line derived from a Burkitt's lymphoma of a person. The Daudi cell line (ATCC CCL-213) is a B lymphoblast cell line derived from person. Cells were incubated with chlorotoxin or the designated binding domain peptide (SEQ ID NO: 8 or 10), washed then incubated with streptavidin-fluorescein (strp-FL). After another wash, cells were analyzed using a FACS analyzer and the percent of positive staining cells determined (FIG. 1). Controls included untreated cells, cells incubated with streptavidin-fluorescein alone and cells incubated with negative peptide.
Molt-4 cells (Minowada et al. (1972) J. Natl. Cancer Inst. 49, 891-895) were used either unfixed or fixed with one percent glutaraldehyde. The Molt-4 cell line is a T lymphoblast cell line derived from a patient in relapse. Cells were incubated with chlorotoxin or the designated binding domain peptide (SEQ ID NO: 8 or 10), washed then incubated with streptavidin-fluorescein (strp-FL). After another wash, cells were analyzed using a FACS analyzer and the percent of positive staining cells determined (FIG. 2). […]

Daudi cell line = assay: Cell proliferation / cytotoxicity, CCK-8, chlorotoxin (TM-601) with or without doxorubicin; assay type: cell-based; conditions: in combination with doxorubicin; FIG. 4
Method: (§1) A tissue culture method was optimized to test the effects of chlorotoxin (TM-601) in the presence or absence of doxorubicin on Raji (FIG. 3) and Daudi (FIG. 4) cell lines. Cells were plated on 96-well microtiter tissue culture plates at a density of approximately 1000-2000 cells per well, depending on the specific cell line. Cells were allowed to adhere twenty-four hours in a 37° C., humidified cell culture incubator supplied with five percent carbon dioxide. In order to achieve a dose-response curve for each drug in each cell line, cells were treated with decreasing concentrations doxorubicin for two to five days. Following treatment, the cytotoxic effect of doxorubicin was quantified using the Cell Counting Kit-8 (CCK-8) (Dojindo Inc.) according to the manufacturer's instructions. In brief, following the treatment period with doxorubicin, cells were incubated with CCK-8 reagent and incubated at 37° C. for one to four hours, depending on the specific cell type. After incubation, plates were read on a microplate reader at a wavelength of 490 nm.

Raji cell line = assay: as above; assay type: cell-based; conditions: in combination with doxorubicin; FIG. 3
Method: as §1

chlorotoxin
binding to myeloid and lymphoid cancer cells [1]: specifically and selectively bind
effect on Daudi cell proliferation (Daudi cell line): close-dependent synergistic effects
effect on Raji cell proliferation (Raji cell line): close-dependent synergistic effects
